Experimental data published in patent publication US20210100868A1, “COMPOSITIONS AND METHODS FOR TREATING OR PREVENTING GASTROINTESTINAL DAMAGE ASSOCIATED WITH NSAID THERAPY” (NORTH CAROLINA STATE UNIVERSITY, priority 2018, published 2021).
Where no end group is shown, it is not given here.

Columns and labels:
[1] = tested on: ischemic-injured porcine jejunum; assay: Recovery of barrier function (transepithelial electrical resistance) in ischemic-injured porcine jejunum in Ussing chambers, with indomethacin; type: cell-based, Yorkshire-cross pigs; details: FIG. 1
Description: In order to determine whether Larazotide could function as a therapeutic agent that could stimulate intestinal tissue repair in the presence of a non-steroidal anti-inflammatory drug (NSAID), recovery of barrier function in ischemic-injured porcine jejunum was monitored in the presence of the NSAID indomethacin.
Specifically, Yorkshire-cross pigs of 6-8 weeks of age were anesthetized, followed by midline laparotomy and creation of a series of 10 cm intestinal loops commencing proximal to the ileum by ligating the intestinal lumen.
The local mesenteric vasculature was ligated to select treatment loops for a period of 45 minutes. Other loops were left as non-ischemic controls. The loops were subsequently resected, and the mucosal tissues were stripped in oxygenated (95% O2/5 % CO2) rings from the muscle layers in preparation of ex vivo incubation in Ussing chambers.
Select tissues (n=8) were pre-treated with indomethacin (5 μM) on both sides of the tissue, prior to receiving 0.1-10 μM Larazotide on the luminal surface after 30 minutes of incubation in the Ussing chambers.
Transepithelial electrical resistance (TER) was monitored in the tissues for 240 minutes.

[2] = clinical trials, cited from earlier work
tight junction = assay: Tight junction regulator activity of larazotide fragments; details: for Activity of full length larazotide when mixed with the two fragments: GVLVQPG and VLVQPG mixed with full length larazotide; for Activity as tight junction regulators: fragment alone

Molecule | Activity of full length larazotide when mixed with the two fragments (tight junction) | Activity as tight junction regulators (tight junction) | also measured
COc1ccc2c(c1)c(CC(=O)O)c(C)n2C(=O)c1ccc(Cl)cc1 [indomethacin] |  |  | Transepithelial electrical resistance (TER) ([1]; indomethacin applied without larazotide): decline in TER
GGVLVQPG [Larazotide] |  |  | Transepithelial electrical resistance (TER) ([1]; 1 μM larazotide on luminal surface, in the presence of indomethacin (5 μM), monitored for 240 minutes): increased TER; Clinical activity at higher doses ([2]; higher doses (e.g., 1 mg and 2 mg doses)): attenuation of activity, or no activity at all; Clinical benefit on intestinal disease symptoms ([2]; lower doses (e.g., 0.5 mg dose)): benefit at reducing intestinal disease symptoms
GVLVQPG [larazotide-derived fragment missing an N-terminal glycine residue] | activity is completely abolished | largely inactive | 
VLVQPG [larazotide-derived fragment missing N-terminal glycine residues] | activity is completely abolished | largely inactive | 
